# Laboratory results: patent US20250073234A1, “COMBINATION THERAPIES INCLUDING PARP1 INHIBITORS” (Cornell University, priority 2022, published 2025)
# “Also recorded” adds a separate entry of the source.
# Tests used:
# [1] = tested on: WPMY-1 cells; experiment: qPCR of CAF / stromal activation markers in WPMY-1 cells; type: cell-based, human; settings: co-treatment with Olaparib
# Description: (§1) To knock out PARP-1 in WPMY-1 cells, single-guide RNA sequences targeting PARP-1 exon2 were purchased from Synthego and transduced into WPMY-1 cells with recombinant Streptococcus pyogenes Cas9 protein (Truecut Cas9 Protein v2, Thermo), using the Neon Transfection System 1 (Invitrogen) following the manufacturer's protocol and single clones were expanded and screened by protein immunoblotting. To perform AP1-A binding site editing in the SQSTM promoter in WPMY-1 cells, single-guide RNA sequences targeting the human AP1-A binding site (Synthego) was transduced into cells with a Cas9 protein and a single-stranded donor oligonucleotide (ssODN, IDT) using Neon Electroporation System. Single clones were expanded and screened for AP1-A editing by Sanger sequencing. A point mutation to disrupt the API enhancer element in the p62 promoter was introduced by Site Directed Mutagenesis (Stratagene). Knockdown of MCT1, MCT4, FOS, PARP1, PARP2, CD38, ATG5, and SIRT1-7 genes in WPMY-1 cells were achieved by siRNA transfection using Lipofectamine RNAiMAX Transfection Reagent (Invitrogen). Transient overexpression was achieved by transfection using X-tremeGENE HP transfection reagent (Roche). Transfected cells were examined 48 hours after transfection. Establishing stably GFP or RFP expressing cells was achieved by lentivirus-mediated transduction. Lentivirus were produced in HEK293T cells using X-tremeGENE HP transfection reagent (Roche). Virus-containing supernatants were collected 48, 72 and 96 hours after transfection, filtered to eliminate cells, and supplemented with 8 μg/ml polybrene. Cells were infected with three rounds of viral supernatants and selected with puromycin (3 μg/ml). For autophagy or proteasome inhibition, WPMY-1 cells were treated for 12 hours with 100 nM bafilomycin Al or 12 hours with 20 μM of MG132, respectively, or vehicle (DMSO). For PARP1 inhibition, WPMY-1 cells were treated with PJ34 (2 days) or Olaparib (4 days) at the doses indicated in each experiment. For MCT1 inhibition, WPMY-1 cells were treated for 48 hours with 10 μM of AZD3965. For cJUN inhibition, WPMY-1 cells were treated for 48 hours with 10 μM of SP600125. For calpains and caspases inhibition, WPMY-1 cells were treated for 48 hours with 1-20 μM of Calpeptin (Tocris) or z-VAD-FMK (Tocris), respectively. For protein synthesis inhibition, WPMY-1 cells were treated with 50 μg/ml of cycloheximide (Sigma). Conditioned media (CM) was generated by collecting supernatant on day 3. CM was transferred to a 15 ml BD Falcon tube and centrifuged at 1300 rpm for 10 minutes. The supernatant was sterile filtered using a […] (Millex-GV) with a 10 ml syringe barrel. The samples were stored at […] for future experiments. Fractionation of the CM was achieved using Amicon Ultra centrifugal filters (3KUltracel, Millipore). The supernatant was centrifuged at 4000 rpm for 1 hour. The supernatant fraction that was >3 kDa remained above the filter and that which was <3 kDa passed through to the lower chamber. The >3-kDa fraction was resuspended in DMEM to the pre-filtration volume.
# Total RNA from mouse tissues, cells and cultured organoids was extracted using the TRIZOL reagent (Invitrogen) and the RNeasy Mini Kit (QIAGEN), followed by DNase treatment. After quantification using a Nanodrop 1000 spectrophotometer (Thermo Scientific), RNA was either processed for RNA-seq or reverse-transcribed using random primers and MultiScribe Reverse Transcriptase (Applied Biosystems). Gene expression was analyzed by amplifying 20 ng of the complementary DNA using the CFX96 Real Time PCR Detection System with SYBR Green Master Mix (BioRad) and primers described in Table S1. The amplification parameters were set at 95° C. for 30 seconds, 58° C. for 30 seconds, and 72° C. for 30 seconds (40 cycles total). Gene expression values for each sample were normalized to the 18s RNA.
# [2] = tested on: p62 (SQSTM1) in WPMY-1 cells; experiment: p62/SQSTM1 expression in WPMY-1 stromal fibroblasts (immunoblot, qPCR); type: cell-based, human
# Description: as §1, with “For PARP1 inhibition, WPMY-1 cells were treated with PJ34 (2 days) or Olaparib (4 days) at the doses indicated in each experiment.” left out
# [3] = tested on: human ovarian cancer PDXs; settings: Niraparib vs vehicle, GSE163854
# Description: (§2) For RNA-Seq, sequencing Fastq files were uploaded to BaseSpace and processed with RNASeq Alignment App (Illumina) to obtain raw reads counts for each gene. For 3′RNA-Seq, read data was processed with the BlueBee Genomics Platform (BlueBee, San Mateo, CA). GenePattern (https://genepattern.broadinstitute.org/gp/pages/index.jsf) was used to collapse gene matrix files (CollapseDataset module) or to assess the statistical significance of differential gene expression (ComparativeMarkerSelection module for microarray data and DESeq2 module for RNA-seq data). […] For ATACSeq, FASTQ files from ATAC-seq reads were aligned to UCSC mm10 with Bowtie2 (bowtie2-very-sensitive-x mm10-1 FILE_merged_R1.fastq-2 FILE_merged_R2.fastq-X 1000-p 12 | samtools view-u-| samtools sort->FILE.bam). […] For motif enrichment analysis in the differential peaks between vehicle and Olaparib-treated cells, p-values were calculated using findMotifsGenome.pl with—size given,—len 6,8,10,12 and—mask program of HOMER v4.10.3. […] For ATACSeq, FASTQ files from ATAC-seq reads were aligned to UCSC mm10 with Bowtie2 (bowtie2-very-sensitive-x mm10-1 FILE_merged_R1.fastq-2 FILE_merged_R2.fastq-X 1000-p 12 | samtools view-u-I samtools sort->FILE.bam). […] For scRNA-seq, raw sequence reads were quality-checked using FastQC software. […]
# [4] = tested on: PC3 cells; experiment: Click-iT EdU proliferation of PC3 cells treated with CM from WPMY-1 cells; type: cell-based, human; settings: Olaparib 10 μM + PEGPH20 2.5 μg/ml or CM incubation with Galunisertib 10 μM
# Description: WPMY-1 cells were cultured in DMEN containing 10% FBS (basal conditions) or 10% charcoal stripped FBS (ADT conditions), then the cells were treated with vehicle (DMSO), Olaparib 10 μM, Olaparib 10 μM+PEGPH20 2.5 μg/ml for 96 hours, refreshing media and stimuli at 48 hours, conditioned media (CM) was generated by collecting supernatant on day 4. PC3 cells were seeded in a black-walled well (Thermo Fisher) and serum starved overnight. CM from WPMY-1 cells was added to PC3 for 24 h. PC3 were exposed to EdU incorporation for the last 2 hours. Proliferating cells were detected using Click-iT EdU Alexa fluor 488 (Thermo Fisher) following the manufacturer's instructions. Pictures were taken using EVOS M5000 Imaging System and EdU positive were measured using Fiji (Schindelin et al., 2012).
# [5] = tested on: BRCA deficient breast tumors; experiment: GSEA of RNAseq data of BRCA deficient breast tumors (GSE125206)
# Description: as §2
smiles,measurement,setting,value
CNC(=O)c1ccccc1Oc1nc(Nc2cc(OC)c(OC)c(OC)c2)ncc1Br [SBI-0202965],Olaparib-induced activation of stroma (qPCR of CAF marker ACTA2),[1],reverted the Olaparib-induced activation of stroma in a dose dependent manner; also recorded: reverts the stroma activation induced by Olaparib
Cc1[nH]nc(C(F)(F)F)c1Cc1sc2c(c1C(=O)N1C[C@](C)(O)CO1)c(=O)n(C)c(=O)n2C(C)C [AZD3965],p62 downregulation induced by CM from PC3 cells,"[2]; WPMY-1 cells, MCT1 inhibitor 10 μM, PC3 CM 48 h",impaired p62 downregulation in WPMY-1 cells treated with PC3 CM
CN(C)CC(=O)Nc1ccc2[nH]c(=O)c3ccccc3c2c1 [PJ34],"p62 expression (protein, SQSTM1 mRNA)","[2]; WPMY-1 cells, PJ34 24 h, Olaparib 48 h",reduced the expression of p62 in a dose-dependent manner
NC(=O)c1cccc2cn(-c3ccc([C@@H]4CCCNC4)cc3)nc12 [Niraparib],GSEA inflammatory signaling signatures,[3],increased inflammatory related signatures
same,GSEA signatures of stromal activation,[3],showing stromal activation
"NC(=O)c1ccc[n+]([C@@H]2O[C@H](CO)[C@@H](O)[C@H]2O)c1 [NR, nicotinamide riboside]",rescue of lactate-induced reduction in p62,"[2]; lactate-treated WPMY-1 cells, 48 h, NAD 150 μM, NR 200 μM",completely rescued the lactate-induced reduction in p62
Cc1cccc(-c2nn3c(c2-c2ccnc4ccc(C(N)=O)cc24)CCC3)n1 [Galunisertib],Olaparib-induced proliferation (EdU),[4],completely abolished the stromal proliferation induced by Olaparib
Cn1ncnc1[C@H]1c2n[nH]c(=O)c3cc(F)cc(c23)N[C@@H]1c1ccc(F)cc1 [Talazoparib],GSEA inflammatory signaling signatures,[5]; Talazoparib vs saline,increased inflammatory related signatures
same,GSEA signatures of stromal activation,[5]; Talazoparib vs vehicle,significant enrichment of signatures of stromal activation; also recorded: showing stromal activation
